Test system: AR
Assay: In Vitro AR Agonism Assay (LNAR reporter cell line)
Format: cell-based
Settings: for Relative Maximum Response to Mifepristone: LNAR reporter cells, RPMI + 10% CSS, 18-24 hrs, maximum response of Mifepristone set to 1
Description: In Vitro AR Agonism Assay
The AR agonism assay was done in the LNAR reporter cell line which has overexpressed AR and 4×ARE-Luc genes. This cell line is sensitive to even minor partial AR agonism activity in hormone-deprived media (CSS). The assays were done in RPMI (without phenol red)+10% CSS using 6000 LNAR cells/well in 384-well plates and compounds were incubated with cells in […] incubator for 18-24 hrs. OneGlo reagent (25 uL/well) was added and plates were read with luminometer within 3 minutes.
To gauge the AR partial agonism activity, Mifepristone is included as a standard in the assay. AR agonism assay results are quantified by determining the ratio of the maximum response of individual compounds to the maximum response of Mifepristone (arbitrarily set to 1). Values of Table 4 are reported as Relative Maximum Response to Mifepristone. This general trend of AR agonism was shown for the class of compounds described herein.

Row | Compound | Relative Maximum Response to Mifepristone | partial AR agonism (in concentrations as low as 10 nM)
1 | CC#C[C@]1(O)CC[C@H]2[C@@H]3CCC4=CC(=O)CC[C@@H]4[C@H]3[C@@H](c3ccc(N(C)C)cc3)C[C@@]21C [Compound 3] | B (B: >0.4) | –
2 | COc1ccc([C@H]2C[C@@]3(C)[C@@H](CC[C@@]3(O)C#CC3CC3)[C@@H]3CCC4=CC(=O)CC[C@]4(C)C23)cc1 (stereo partly drawn) [Compound 6] | A (A: ≤0.4) | –
3 | CN(C)c1ccc([C@H]2C[C@@]3(C)[C@@H](CC[C@@]3(O)C#CC(C)(C)C)[C@@H]3CCC4=CC(=O)CC[C@@H]4[C@H]32)cc1 [Compound 7, (8R,9S,10R,11S,13S,14S,17S)-11-(4-(dimethylamino)phenyl)-17-(3,3-dimethylbut-1-yn-1-yl)-17-hydroxy-13-methyl-1,2,6,7,8,9,10,11,12,13,14,15,16,17-tetradecahydro-3H-cyclopenta[a]phenanthren-3-one] | A (A: ≤0.4) | –
4 | COC(C)(C)C#C[C@]1(O)CC[C@H]2[C@@H]3CCC4=CC(=O)CC[C@@H]4[C@H]3[C@@H](c3ccc(N(C)C)cc3)C[C@@]21C [Compound 10, (8R,9S,10R,11S,13S,14S,17S)-11-(4-(Dimethylamino)phenyl)-17-hydroxy-17-(3-methoxy-3-methylbut-1-yn-1-yl)-13-methyl-1,2,6,7,8,9,10,11,12,13,14,15,16,17-tetradecahydro-3H-cyclopenta[a]phenanthren-3-one] | A (A: ≤0.4) | –
5 | CC(C)C#C[C@]1(O)CC[C@H]2[C@@H]3CCC4=CC(=O)CC[C@]4(C)C3[C@@H](c3ccc(N(C)C)cc3)C[C@@]21C (stereo partly drawn) [Compound 13, (8S,10R,11S,13S,14S,17S)-11-(4-(Dimethylamino)phenyl)-17-hydroxy-10,13-dimethyl-17-(3-methylbut-1-yn-1-yl)-1,2,6,7,8,9,10,11,12,13,14,15,16,17-tetradecahydro-3H-cyclopenta[a]phenanthren-3-one] | A (A: ≤0.4) | –
6 | CC#C[C@]1(O)CC[C@H]2[C@@H]3CCC4=CC(=O)CCC4=C3[C@@H](c3ccc(N(C)C)cc3)C[C@@]21C [Mifepristone, reference compound] | – | strong partial AR agonism
